According to PMC9688307 (2022):

Legend:
[1] = tested on: BP33-stem-30GT (DNA, aptamer) CCGCCGTTGGTGTGGTGGGCCTAGGGCCGTCGG; assay: ITC; conditions: 100 mM NaCl, 25 mM KCl, 10 mM MgCl2; 25 mM Tris-HCl pH 8.0, 2% DMSO; 500 μM BPA into 30 μM aptamer
[2] = tested on: BP33-16TA (DNA, aptamer) CCGCCGTTGGTGTGGAGGGCCTAGGGCCGGCGG; assay: ITC; conditions: 100 mM NaCl, 25 mM KCl, 10 mM MgCl2; 25 mM Tris-HCl pH 8.0, 2% DMSO; 500 μM BPA into 30 μM aptamer
[3] = tested on: BP33-stem-29GT (DNA, aptamer) CCGCCGTTGGTGTGGTGGGCCTAGGGCCTGCGG; assay: ITC; conditions: 100 mM NaCl, 25 mM KCl, 10 mM MgCl2; 25 mM Tris-HCl pH 8.0, 2% DMSO; 500 μM BPA into 30 μM aptamer
[4] = tested on: BP33-14GT (DNA, aptamer) CCGCCGTTGGTGTTGTGGGCCTAGGGCCGGCGG; assay: ITC; conditions: 100 mM NaCl, 25 mM KCl, 10 mM MgCl2; 25 mM Tris-HCl pH 8.0, 2% DMSO; 500 μM BPA into 30 μM aptamer
[5] = tested on: BP45 (DNA, aptamer) CCGCCGTTGGTGTGGTGGGCCTAGGGCCGGCGGCGCACAGCTGTT; assay: ITC; conditions: 100 mM NaCl, 25 mM KCl, 10 mM MgCl2; 25 mM Tris-HCl pH 8.0, 2% DMSO; 500 μM BPA into 30 μM aptamer
[6] = tested on: BP33-10GT (DNA, aptamer) CCGCCGTTGTTGTGGTGGGCCTAGGGCCGGCGG; assay: ITC; conditions: 100 mM NaCl, 25 mM KCl, 10 mM MgCl2; 25 mM Tris-HCl pH 8.0, 2% DMSO; 500 μM BPA into 30 μM aptamer
[7] = tested on: BP40 (DNA, aptamer) CCGCCGTTGGTGTGGTGGGCCTAGGGCCGGCGGCGCACAG; assay: ITC; conditions: 100 mM NaCl, 25 mM KCl, 10 mM MgCl2; 25 mM Tris-HCl pH 8.0, 2% DMSO; 500 μM BPA into 30 μM aptamer
[8] = tested on: BP50 (DNA, aptamer) CCGCCGTTGGTGTGGTGGGCCTAGGGCCGGCGGCGCACAGCTGTTATAGA; assay: ITC; conditions: 100 mM NaCl, 25 mM KCl, 10 mM MgCl2; 25 mM Tris-HCl pH 8.0, 2% DMSO; 500 μM BPA into 30 μM aptamer
[9] = tested on: BP33-11TA (DNA, aptamer) CCGCCGTTGGAGTGGTGGGCCTAGGGCCGGCGG; assay: ITC; conditions: 100 mM NaCl, 25 mM KCl, 10 mM MgCl2; 25 mM Tris-HCl pH 8.0, 2% DMSO; 500 μM BPA into 30 μM aptamer
[10] = tested on: BP29 (DNA, aptamer) GCCGTTGGTGTGGTGGGCCTAGGGCCGGC; assay: ITC; conditions: 100 mM NaCl, 25 mM KCl, 10 mM MgCl2; 25 mM Tris-HCl pH 8.0, 2% DMSO; 500 μM BPA into 30 μM aptamer
[11] = tested on: BP33-18GT (DNA, aptamer) CCGCCGTTGGTGTGGTGTGCCTAGGGCCGGCGG; assay: ITC; conditions: 100 mM NaCl, 25 mM KCl, 10 mM MgCl2; 25 mM Tris-HCl pH 8.0, 2% DMSO; 500 μM BPA into 30 μM aptamer
[12] = tested on: BP34 (DNA, aptamer) CGCCGTTGGTGTGGTGGGCCTAGGGCCGGCGGCG; assay: ITC; conditions: 100 mM NaCl, 25 mM KCl, 10 mM MgCl2; 25 mM Tris-HCl pH 8.0, 2% DMSO; 500 μM BPA into 30 μM aptamer
[13] = tested on: BP33-13TA (DNA, aptamer) CCGCCGTTGGTGAGGTGGGCCTAGGGCCGGCGG; assay: ITC; conditions: 100 mM NaCl, 25 mM KCl, 10 mM MgCl2; 25 mM Tris-HCl pH 8.0, 2% DMSO; 500 μM BPA into 30 μM aptamer
[14] = tested on: BP33-22TA (DNA, aptamer) CCGCCGTTGGTGTGGTGGGCCAAGGGCCGGCGG; assay: ITC; conditions: 100 mM NaCl, 25 mM KCl, 10 mM MgCl2; 25 mM Tris-HCl pH 8.0, 2% DMSO; 500 μM BPA into 30 μM aptamer
[15] = tested on: BP31 (DNA, aptamer) CGCCGTTGGTGTGGTGGGCCTAGGGCCGGCG; assay: ITC; conditions: 100 mM NaCl, 25 mM KCl, 10 mM MgCl2; 25 mM Tris-HCl pH 8.0, 2% DMSO; 500 μM BPA into 30 μM aptamer
[16] = tested on: BP29-3'-MB (DNA, aptamer) GCCGTTGGTGTGGTGGGCCTAGGGCCGGC; assay: square wave voltammetry, aptamer-modified gold electrode; conditions: 100 mM NaCl, 25 mM KCl, 10 mM MgCl2, 25 mM Tris-HCl pH 8.0
[17] = tested on: BP63 (DNA, aptamer) CCGGTGGGTGGTCAGGTGGGATAGCGTTCCGCGTATGGCCCAGCGCATCACGGGTTCGCACCA; assay: ITC; conditions: 100 mM NaCl, 25 mM KCl, 10 mM MgCl2; 25 mM Tris-HCl pH 8.0, 2% DMSO; 200 μM BPA into 20 μM aptamer
[18] = tested on: BP33-15GT (DNA, aptamer) CCGCCGTTGGTGTGTTGGGCCTAGGGCCGGCGG; assay: ITC; conditions: 100 mM NaCl, 25 mM KCl, 10 mM MgCl2; 25 mM Tris-HCl pH 8.0, 2% DMSO; 500 μM BPA into 30 μM aptamer
[19] = tested on: BP25 (DNA, aptamer) CGTTGGTGTGGTGGGCCTAGGGCCG; assay: ITC; conditions: 100 mM NaCl, 25 mM KCl, 10 mM MgCl2; 25 mM Tris-HCl pH 8.0, 2% DMSO; 500 μM BPA into 30 μM aptamer
[20] = tested on: BP55 (DNA, aptamer) CCGCCGTTGGTGTGGTGGGCCTAGGGCCGGCGGCGCACAGCTGTTATAGACGTCT; assay: ITC; conditions: 100 mM NaCl, 25 mM KCl, 10 mM MgCl2; 25 mM Tris-HCl pH 8.0, 2% DMSO; 500 μM BPA into 30 μM aptamer
[21] = tested on: BP35 (DNA, aptamer) CCGCCGTTGGTGTGGTGGGCCTAGGGCCGGCGGCG; assay: ITC; conditions: 100 mM NaCl, 25 mM KCl, 10 mM MgCl2; 25 mM Tris-HCl pH 8.0, 2% DMSO; 500 μM BPA into 30 μM aptamer
[22] = tested on: BP33-8TA (DNA, aptamer) CCGCCGTAGGTGTGGTGGGCCTAGGGCCGGCGG; assay: ITC; conditions: 100 mM NaCl, 25 mM KCl, 10 mM MgCl2; 25 mM Tris-HCl pH 8.0, 2% DMSO; 500 μM BPA into 30 μM aptamer
[23] = tested on: BP33-12GT (DNA, aptamer) CCGCCGTTGGTTTGGTGGGCCTAGGGCCGGCGG; assay: ITC; conditions: 100 mM NaCl, 25 mM KCl, 10 mM MgCl2; 25 mM Tris-HCl pH 8.0, 2% DMSO; 500 μM BPA into 30 μM aptamer
[24] = tested on: BP33 (DNA, aptamer) CCGCCGTTGGTGTGGTGGGCCTAGGGCCGGCGG; assay: ITC; conditions: 100 mM NaCl, 25 mM KCl, 10 mM MgCl2; 25 mM Tris-HCl pH 8.0, 2% DMSO; 500 μM BPA into 30 μM aptamer
[25] = tested on: BP33-23AT (DNA, aptamer) CCGCCGTTGGTGTGGTGGGCCTTGGGCCGGCGG; assay: ITC; conditions: 100 mM NaCl, 25 mM KCl, 10 mM MgCl2; 25 mM Tris-HCl pH 8.0, 2% DMSO; 500 μM BPA into 30 μM aptamer
[26] = tested on: BP33-20CA (DNA, aptamer) CCGCCGTTGGTGTGGTGGGACTAGGGCCGGCGG; assay: ITC; conditions: 100 mM NaCl, 25 mM KCl, 10 mM MgCl2; 25 mM Tris-HCl pH 8.0, 2% DMSO; 500 μM BPA into 30 μM aptamer
[27] = tested on: BP33-26GT (DNA, aptamer) CCGCCGTTGGTGTGGTGGGCCTAGGTCCGGCGG; assay: ITC; conditions: 100 mM NaCl, 25 mM KCl, 10 mM MgCl2; 25 mM Tris-HCl pH 8.0, 2% DMSO; 500 μM BPA into 30 μM aptamer
[28] = tested on: BP33-17GT (DNA, aptamer) CCGCCGTTGGTGTGGTTGGCCTAGGGCCGGCGG; assay: ITC; conditions: 100 mM NaCl, 25 mM KCl, 10 mM MgCl2; 25 mM Tris-HCl pH 8.0, 2% DMSO; 500 μM BPA into 30 μM aptamer
[29] = tested on: BP33-25GT (DNA, aptamer) CCGCCGTTGGTGTGGTGGGCCTAGTGCCGGCGG; assay: ITC; conditions: 100 mM NaCl, 25 mM KCl, 10 mM MgCl2; 25 mM Tris-HCl pH 8.0, 2% DMSO; 500 μM BPA into 30 μM aptamer
[30] = tested on: BP33-7TA (DNA, aptamer) CCGCCGATGGTGTGGTGGGCCTAGGGCCGGCGG; assay: ITC; conditions: 100 mM NaCl, 25 mM KCl, 10 mM MgCl2; 25 mM Tris-HCl pH 8.0, 2% DMSO; 500 μM BPA into 30 μM aptamer
[31] = tested on: BP27 (DNA, aptamer) CCGTTGGTGTGGTGGGCCTAGGGCCGG; assay: ITC; conditions: 100 mM NaCl, 25 mM KCl, 10 mM MgCl2; 25 mM Tris-HCl pH 8.0, 2% DMSO; 500 μM BPA into 30 μM aptamer
[32] = tested on: BP33-stem-6GT (DNA, aptamer) CCGCCTTTGGTGTGGTGGGCCTAGGGCCGGCGG; assay: ITC; conditions: 100 mM NaCl, 25 mM KCl, 10 mM MgCl2; 25 mM Tris-HCl pH 8.0, 2% DMSO; 500 μM BPA into 30 μM aptamer
[33] = tested on: BP33-9GT (DNA, aptamer) CCGCCGTTTGTGTGGTGGGCCTAGGGCCGGCGG; assay: ITC; conditions: 100 mM NaCl, 25 mM KCl, 10 mM MgCl2; 25 mM Tris-HCl pH 8.0, 2% DMSO; 500 μM BPA into 30 μM aptamer
[34] = tested on: BP33-27CA (DNA, aptamer) CCGCCGTTGGTGTGGTGGGCCTAGGGACGGCGG; assay: ITC; conditions: 100 mM NaCl, 25 mM KCl, 10 mM MgCl2; 25 mM Tris-HCl pH 8.0, 2% DMSO; 500 μM BPA into 30 μM aptamer
[35] = tested on: BP33-21CA (DNA, aptamer) CCGCCGTTGGTGTGGTGGGCATAGGGCCGGCGG; assay: ITC; conditions: 100 mM NaCl, 25 mM KCl, 10 mM MgCl2; 25 mM Tris-HCl pH 8.0, 2% DMSO; 500 μM BPA into 30 μM aptamer
[36] = 100 μM tested, no remarkable current change

CC(C)(c1ccc(O)cc1)c1ccc(O)cc1
Kd [1]: 51.2 ± 10.4 µM | Kd [2]: 24.4 ± 1.6 µM | binding [3]: no | binding [4]: no | Kd [5]: 12.5 ± 0.8 µM | binding [6]: no | Kd [7]: 15.4 ± 0.9 µM | Kd [8]: 9.5 ± 0.5 µM | Kd [9]: 24.4 ± 1.8 µM | Kd [10]: 12.4 ± 3.4 µM | binding [11]: no | Kd [12]: 307 ± 249 µM | Kd [13]: 22.6 ± 6.9 µM | Kd [14]: 15.2 ± 0.9 µM | Kd [15]: 13.4 ± 1.5 µM | binding ([16]; current increased 88% at 500 μM BPA): yes | binding [17]: no | binding [18]: no | binding [19]: no | Kd [20]: 11.6 ± 1.0 µM | Kd [21]: 20.2 ± 1.0 µM | binding [22]: no | binding [23]: no | Kd [24]: 10.5 ± 1.5 µM | binding [25]: no | Kd [26]: 14.6 ± 0.9 µM | binding [27]: no | binding [28]: no | binding [29]: no | Kd [30]: 68.4 ± 4.9 µM | Kd [31]: 56 ± 9.0 µM | binding [32]: no | binding [33]: no | Kd [34]: 16.0 ± 2.2 µM | Kd [35]: 10.5 ± 0.7 µM

CN(C)[C@@H]1C(=O)C(C(N)=O)=C(O)[C@@]2(O)C(=O)C3=C(O)c4c(O)cccc4[C@@](C)(O)[C@H]3C[C@@H]12
binding [16, 36]: no

CN(C)[C@@H]1C(=O)C(C(N)=O)=C(O)[C@@]2(O)C(=O)C3=C(O)c4c(O)cccc4[C@@](C)(O)[C@H]3[C@H](O)[C@@H]12
binding [16, 36]: no

O=S(=O)(c1ccc(O)cc1)c1ccc(O)cc1
binding [16, 36]: no

Oc1ccc(-c2ccc(O)cc2)cc1
binding [16, 36]: no
